Data taken from US20260232666A1, “COMPOSITIONS AND METHODS FOR INHIBITION OF RAS” (TheRas, Inc., priority 2023, published 2026).

How the values were obtained:
[1] = target: T1, GTP-loaded KRAS4b (amino acids 1-169) G12C/C118S protein (Homo sapiens, UniProt P01116, C118S/G12C); assay: Covalent cysteine 12 modification by MALDI-TOF MS, GTP-loaded KRAS G12C; type: binding; conditions: 15 minutes reaction time point
T1 construct: KRAS4b (amino acids 1-169) G12C/C118S protein; made in house
How it was run: (§1)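 Covalent adduct formation measured by linear-mode MALDI-TOF MS as modified peak height over summed peak heights, 15 min time point reported. Reactions: KRAS4b 1-169 G12C/C118S (1 μM, loaded with GppNHp, GTP or GDP) plus compound at 1:2.5 ratio, pH 7.3 HEPES/NaCl/MgCl2, room temperature.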

pERK in NCI-H358 cells = assay: Cell-based pERK HTRF assay (pERK inhibition in H358 cells); conditions: Homo sapiens, NCI-H358, 0.5 h, 30 min incubation
How it was run: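 NCI-H358 cells were seeded at 4×10^4 cells/well in RPMI/10% FBS, then treated next day for 30 min at 0.25% DMSO (9-point, 3-fold series from 75 μM). Lysates were read by HTRF (d2/Eu cryptate antibody pair, 615 nm emission) after 4–24 h at room temperature to give pERK IC50.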

[2] = target: T2, GppNHp-loaded KRAS4b (amino acids 1-169) G12C/C118S protein (Homo sapiens, UniProt P01116, C118S/G12C); assay: Covalent cysteine 12 modification by MALDI-TOF MS, GppNHp-loaded KRAS G12C; type: binding; conditions: 15 minutes reaction time point
T2 construct: KRAS4b (amino acids 1-169) G12C/C118S protein; made in house
How it was run: as §1

Row | SMILES | GTP-KRAS G12C percent of modification [1] | IC50 (pERK in NCI-H358 cells) | GppNHp-KRAS G12C percent of modification [2]
1 | C=CC(=O)N1CC[C@@H](N(C)c2nc(OC[C@@]34CCCN3C[C@H](F)C4)nc3c(F)c(-c4nc(N)cc(C)c4C(F)(F)F)c(C(F)(F)F)cc23)[C@@H]1C [Compound 91] | C (10%≤percent of modification <50%) | < 100 nM | A (percent of modification ≥70%)
2 | C=CC(=O)N1CC[C@@H](N(C)c2nc(OC[C@@H]3CC4(CC4)CN3CC)nc3c(F)c(-c4ccc(F)c5sc(N)c(C#N)c45)c(Cl)cc23)[C@@H]1C [Compound 92] | B (50≤percent of modification <70%) | < 100 nM | A (percent of modification ≥70%)
3 | C=CC(=O)N1CC[C@@H](N(C)c2nc(OC[C@@H]3CC4(CC4)CN3CC)nc3c(F)c(-c4ccc(F)c5sc(N)c(C#N)c45)c(C(F)(F)F)cc23)[C@@H]1C [Compound 95] | B (50≤percent of modification <70%) | < 100 nM | A (percent of modification ≥70%)
4 | C=CC(=O)N1CC[C@@H](N(C)c2nc(OC[C@@H]3CC4(CC4)CN3CC)nc3c(F)c(-c4ccc(F)c5sc(N)c(C#N)c45)c(Cl)cc23)[C@H]1C [Compound 97] | A (percent of modification ≥70%) | < 100 nM | A (percent of modification ≥70%)

Now from value to compound:

Row | GTP-KRAS G12C percent of modification [1] | IC50 (pERK in NCI-H358 cells) | GppNHp-KRAS G12C percent of modification [2] | SMILES
5 | D (percent of modification <10%) | 100 to 1000 nM | D (percent of modification <10%) | C=CC(=O)N1CC[C@@H](N(C)c2nc(OC[C@@H]3C[C@@H](F)CN3CC)nc3c(F)c(-c4ccc(F)c5sc(N)c(C#N)c45)c(Cl)cc23)[C@H]1C [Compound 98]
6 | A (percent of modification ≥70%) | < 100 nM | A (percent of modification ≥70%) | C=CC(=O)N1CC[C@@H](N(C)c2nc(OC[C@@H]3C[C@@H](OC)CN3CC)nc3c(F)c(-c4ccc(F)c5sc(N)c(C#N)c45)c(Cl)cc23)[C@H]1C [Compound 99]
7 | C (10%≤percent of modification <50%) | < 100 nM | A (percent of modification ≥70%) | C=CC(=O)N1CC[C@@H](N(C)c2nc(OC[C@@H]3C[C@@H](OC)CN3CC)nc3c(F)c(-c4ccc(F)c5sc(N)c(C#N)c45)c(Cl)cc23)[C@@H]1C [Compound 100]
